Source: ChEMBL document CHEMBL5724696, “Autophagy assay results for EUbOPEN Chemogenomics Library” (2024)

Legend:
Type in all cases: functional, Homo sapiens
U2OS [1] = test: (§1) Here: values are normalized to the negative (DMSO; defined as 0% autophagy induction) and positive (250nM Torin1; mTOR inhibitor; defined as maximal inducer of autophagy = 100%) control compounds and represented as % of autophagy induction. […] The impact of autophagy induction on cells is complex and depends on the affected target. As such, the magnitude of a phenotype may not be equally mirrored in the %-value of autophagy induction and vice versa. The dynamics of the induction may indicate the mode of activation: e.g. activation via phosphorylation or a signaling cascade may occur fast, while activation via transcription factors may take considerably longer. […] Of note, treatment concentrations may be sub-optimal for specific compounds, leading to false negative annotations.; conditions: Culturing Media DMEM, 1 % Penicillin/Streptomycin, 10% Fetal bovin serum Add-On: No, Screening Media Control DMEM, Screening Media Samples DMEM
TERT-RPE1 = test: as §1; conditions: Culturing Media DMEM/F12 (1:1), 1 % Penicillin/Streptomycin, 10% Fetal bovin serum Add-On: No, Screening Media Control DMEM/F12 (1:1), Screening Media Samples DMEM/F12 (1:1)
U2OS [2] = test: as §1; conditions: Culturing Media DMEM, 1 % Penicillin/Streptomycin, 10% Fetal bovin serum Add-On: No, Screening Media Control DMEM, Screening Media Samples DMEM; remark: listed apart in the source
[3] = Compound Concentration 0.5 uM, Timepoint 12 hours
[4] = Compound Concentration 0.5 uM, Timepoint 24 hours
[5] = Compound Concentration 0.5 uM, Timepoint 36 hours
[6] = Compound Concentration 0.5 uM, Timepoint 60 hours
[7] = Compound Concentration 2 uM, Timepoint 12 hours
[8] = Compound Concentration 2 uM, Timepoint 24 hours
[9] = Compound Concentration 2 uM, Timepoint 36 hours
[10] = Compound Concentration 2 uM, Timepoint 60 hours
[11] = Compound Concentration 10 uM, Timepoint 12 hours
[12] = Compound Concentration 10 uM, Timepoint 24 hours
[13] = Compound Concentration 10 uM, Timepoint 36 hours
[14] = Compound Concentration 10 uM, Timepoint 60 hours

| Compound | autophagy induction (U2OS [1]; [3]) | autophagy induction (U2OS [1]; [4]) | autophagy induction (U2OS [1]; [5]) | autophagy induction (U2OS [1]; [6]) | autophagy induction (U2OS [1]; [7]) | autophagy induction (U2OS [1]; [8]) | autophagy induction (U2OS [1]; [9]) | autophagy induction (U2OS [1]; [10]) | autophagy induction (U2OS [1]; [11]) | autophagy induction (U2OS [1]; [12]) | autophagy induction (U2OS [1]; [13]) | autophagy induction (U2OS [1]; [14]) | autophagy induction (TERT-RPE1; [3]) | autophagy induction (TERT-RPE1; [4]) | autophagy induction (TERT-RPE1; [5]) | autophagy induction (TERT-RPE1; [6]) | autophagy induction (TERT-RPE1; [7]) | autophagy induction (TERT-RPE1; [8]) | autophagy induction (TERT-RPE1; [9]) | autophagy induction (TERT-RPE1; [10]) | also measured |
| --- | --- | --- | --- | --- | --- | --- | --- | --- | --- | --- | --- | --- | --- | --- | --- | --- | --- | --- | --- | --- | --- |
| CN(C(=O)Cc1ccc(Cl)c(Cl)c1)C(CN1CCCC1)c1cccc(OCC(=O)O)c1.Cl (centres undefined) | 2.144% | -2.707% | 1.07% | 1.175% | -9.959% | -4.957% | -10.0899% | -9.274% | -7.228% | -6.505% | 0.1565% | 0.07233% | -10.9051% | -12.2301% | -15.6398% | -20.341% | -5.691% | -6.772% | -9.058% | -11.2679% | autophagy induction (TERT-RPE1; [11]): -5.196%; autophagy induction (TERT-RPE1; [12]): -4.57%; autophagy induction (TERT-RPE1; [13]): -3.728%; autophagy induction (TERT-RPE1; [14]): -2.992%; autophagy induction (U2OS [2]; [3]): -12.8922%; autophagy induction (U2OS [2]; [4]): -7.849%; autophagy induction (U2OS [2]; [5]): -3.698%; autophagy induction (U2OS [2]; [6]): -1.542%; autophagy induction (U2OS [2]; [7]): -9.267%; autophagy induction (U2OS [2]; [8]): -3.553%; autophagy induction (U2OS [2]; [9]): -1.479%; autophagy induction (U2OS [2]; [10]): -2.0456%; autophagy induction (U2OS [2]; [11]): -0.2023%; autophagy induction (U2OS [2]; [12]): 1.762%; autophagy induction (U2OS [2]; [13]): 0.1182%; autophagy induction (U2OS [2]; [14]): 0.3636% |
| Cc1c(P(=S)(c2ccccc2)c2ccccc2)n2ccccc2[n+]1C/C=C/c1ccccc1.[Br-] | -3.655% | 0.9546% | -1.282% | 2.215% | -8.9% | -2.047% | 1.308% | 3.722% | 47.8904% | 55.2067% | 55.7211% | 73.829% | -3.105% | -8.592% | -12.0302% | -17.0508% | 2.878% | -0.5859% | 1.195% | -1.818% | autophagy induction (TERT-RPE1; [11]): 24.7841%; autophagy induction (TERT-RPE1; [12]): 51.8106%; autophagy induction (TERT-RPE1; [13]): 73.7567%; autophagy induction (TERT-RPE1; [14]): 96.4076%; autophagy induction (U2OS [2]; [3]): -4.037%; autophagy induction (U2OS [2]; [4]): -2.741%; autophagy induction (U2OS [2]; [5]): -2.914%; autophagy induction (U2OS [2]; [6]): -1.509%; autophagy induction (U2OS [2]; [7]): -1.2597%; autophagy induction (U2OS [2]; [8]): -1.1621%; autophagy induction (U2OS [2]; [9]): -2.341%; autophagy induction (U2OS [2]; [10]): -2.536%; autophagy induction (U2OS [2]; [11]): -27.5654%; autophagy induction (U2OS [2]; [12]): -9.802%; autophagy induction (U2OS [2]; [13]): -1.3311%; autophagy induction (U2OS [2]; [14]): 3.649% |
| N#Cc1cccc(C(=O)Nc2cc(-c3ccccc3)nn2-c2ccccc2)c1 | 0.2338% | 1.876% | 9.199% | 8.756% | -6.937% | -1.593% | 2.3802% | -5.115% | 0.7229% | 5.625% | -1.742% | -2.793% | -7.699% | -6.069% | 3.327% | 19.4837% | -8.111% | -9.075% | -9.172% | -3.858% | autophagy induction (TERT-RPE1; [11]): -3.603%; autophagy induction (TERT-RPE1; [12]): -4.896%; autophagy induction (TERT-RPE1; [13]): -4.571%; autophagy induction (TERT-RPE1; [14]): -1.999%; autophagy induction (U2OS [2]; [3]): -5.641%; autophagy induction (U2OS [2]; [4]): -2.328%; autophagy induction (U2OS [2]; [5]): -2.122%; autophagy induction (U2OS [2]; [6]): -3.431%; autophagy induction (U2OS [2]; [7]): 0.2801%; autophagy induction (U2OS [2]; [8]): -3.069%; autophagy induction (U2OS [2]; [9]): -2.148%; autophagy induction (U2OS [2]; [10]): -2.332%; autophagy induction (U2OS [2]; [11]): -0.7756%; autophagy induction (U2OS [2]; [12]): -1.607%; autophagy induction (U2OS [2]; [13]): -0.5457%; autophagy induction (U2OS [2]; [14]): -0.9476% |
| Cc1cn2cc(CC(=O)N3CCC4(CC3)CN(Cc3ccc(-n5nccn5)cc3Cl)C4)nc2s1 | -19.4257% | -11.2688% | -14.8033% | -9.0407% | 2.217% | 1.46% | 0.9512% | 5.325% | -2.971% | 3.988% | 2.68% | 3.422% | -2.947% | -6.082% | -10.2542% | -15.5621% | -4.023% | -6.112% | -7.965% | -11.2776% | autophagy induction (TERT-RPE1; [11]): 6.864%; autophagy induction (TERT-RPE1; [12]): 5.224%; autophagy induction (TERT-RPE1; [13]): 5.8937%; autophagy induction (TERT-RPE1; [14]): 9.679%; autophagy induction (U2OS [2]; [3]): 1.123%; autophagy induction (U2OS [2]; [4]): -3.762%; autophagy induction (U2OS [2]; [5]): -1.928%; autophagy induction (U2OS [2]; [6]): -1.19%; autophagy induction (U2OS [2]; [7]): -4.678%; autophagy induction (U2OS [2]; [8]): -1.951%; autophagy induction (U2OS [2]; [9]): -1.585%; autophagy induction (U2OS [2]; [10]): -1.336%; autophagy induction (U2OS [2]; [11]): -3.342%; autophagy induction (U2OS [2]; [12]): -3.411%; autophagy induction (U2OS [2]; [13]): -3.208%; autophagy induction (U2OS [2]; [14]): -4.891% |
